Measured values taken from ChEMBL document CHEMBL1146706, “New orally active PDE4 inhibitors with therapeutic potential” (Bioorg Med Chem Lett, 2004).

Legend:
Rattus norvegicus [1] = assay: Inhibition of lipopolysaccharide-induced tumor necrosis factor alpha production in rats at 3 mg/kg peroral dose (n=7); format: functional; details: route oral
Phosphodiesterase 4 = Phosphodiesterase 4 (Homo sapiens, UniProt P27815+Q08499+Q07343+Q08493); assay: Inhibition of phosphodiesterase 4 (PDE4) from U937 cells; format: cell-based; details: u-937
Mustela putorius furo [2] = assay: Emetic effect in fasted ferrets at 3 mg/kg peroral dose (n=2); format: functional; details: route oral
Rattus norvegicus [3] = assay: Inhibition of lipopolysaccharide-induced tumor necrosis factor alpha production in rats by peroral administration (n=7); format: functional; details: po, read-out: ID50 (the source's name)
Homo sapiens = species: Homo sapiens; assay: Inhibition of TNF-alpha production in human whole blood; format: functional, organism-based
Rattus norvegicus [4] = species: Rattus norvegicus; assay: Inhibition of gastric emptying in rats by peroral dose; format: functional; details: Stomach, po, read-out: ID50 (the source's name)
Mustela putorius furo [5] = assay: Emetic effect in fasted ferrets at 30 mg/kg peroral dose (n=2); format: functional; details: route oral
Mustela putorius furo [6] = assay: Emetic effect in fasted ferrets at 10 mg/kg peroral dose (n=3); format: functional; details: route oral
Cavia porcellus [7] = assay: In vivo inhibition of SRS-A mediated bronchoconstriction in guinea pig at 10 mg/kg peroral dose; format: functional; details: Lung, route oral
Rattus norvegicus [8] = assay: Inhibition of lipopolysaccharide-induced tumor necrosis factor alpha production in rats at 10 mg/kg peroral dose (n=7); format: functional; details: route oral
Rattus norvegicus [9] = assay: Inhibition of lipopolysaccharide-induced tumor necrosis factor alpha production in rats by peroral administration; format: functional; details: po, read-out: ID50 (the source's name)
Cavia porcellus [10] = assay: In vivo inhibition of slow reacting substance of anaphylaxis (SRS-A) mediated bronchoconstriction in guinea pig; format: functional, organism-based; details: Lung
Rattus norvegicus [11] = assay: Inhibition of gastric emptying in rats […] peroral dose; format: functional; details: Stomach, route oral, read-out: ID50 (the source's name)
Mustela putorius furo [12] = assay: Emetic effect in fasted ferrets at 10 mg/kg peroral dose (n=2); format: functional; details: route oral

Cc1nn(C)c2ncc(C(N)=O)c(Nc3cccc(C#N)c3)c12
inhibition in vivo at 3 mg/kg (Rattus norvegicus [1]): 2% | IC50 (Phosphodiesterase 4): 85 nM

Cc1nn(C)c2ncc(C(N)=O)c(Nc3cccc(O[C@H]4CCN(S(C)(=O)=O)C4)c3)c12
IC50 (Phosphodiesterase 4): 250 nM

COC(=O)N1CC[C@H](Oc2cccc(Nc3c(C(N)=O)cnc4c3c(C)nn4C)c2)C1
No. of ferrets (Mustela putorius furo [2]): 0 | ED50 (Rattus norvegicus [3]): 1 mg/kg | IC50 (Phosphodiesterase 4): 10 nM | IC50 (Homo sapiens): 4800 nM | ED50 (Rattus norvegicus [4]): 15 mg/kg | No. of ferrets (Mustela putorius furo [5]): 2 | No. of ferrets (Mustela putorius furo [6]): 0 | inhibition in vivo at 10 mg/kg (Cavia porcellus [7]): 45%

Cc1nn(C)c2ncc(C(N)=O)c(Nc3ccccc3)c12
IC50 (Phosphodiesterase 4): 36 nM | inhibition in vivo at 10 mg/kg (Rattus norvegicus [8]): 48%

COc1ccc([C@]2(C#N)CC[C@@H](C(=O)O)CC2)cc1OC1CCCC1 [CILOMILAST]
ED50 (Rattus norvegicus [9]): 1.7 mg/kg | ED50 (Rattus norvegicus [4]): 5.7 mg/kg | IC50 (Cavia porcellus [10]): 4500 nM

Cc1nn(C)c2ncc(C(N)=O)c(Nc3cccc(O[C@H]4CCN(C(=O)OC(C)(C)C)C4)c3)c12
IC50 (Phosphodiesterase 4): > 300 nM

Cc1nn(C)c2ncc(C(N)=O)c(Nc3cccc(O[C@H]4CCNC4)c3)c12
IC50 (Phosphodiesterase 4): > 300 nM

Cc1nn(C)c2ncc(C(N)=O)c(Nc3cccc(O)c3)c12
IC50 (Phosphodiesterase 4): 97 nM | inhibition in vivo at 10 mg/kg (Rattus norvegicus [8]): 40%

Cc1nn(C)c2ncc(C(N)=O)c(Nc3cccc(OC4CCCCC4)c3)c12
IC50 (Phosphodiesterase 4): > 100 nM

COc1cccc(Nc2c(C(N)=O)cnc3c2c(C)nn3C)c1
No. of ferrets (Mustela putorius furo [2]): 0 | ED50 (Rattus norvegicus [3]): 2.4 mg/kg | IC50 (Phosphodiesterase 4): 5 nM | IC50 (Homo sapiens): 3000 nM | ED50 (Rattus norvegicus [11]): 23 mg/kg | No. of ferrets (Mustela putorius furo [5]): 1 | No. of ferrets (Mustela putorius furo [12]): 0 | IC50 (Cavia porcellus [10]): 6800 nM

COc1ccccc1Nc1c(C(N)=O)cnc2c1c(C)nn2C
IC50 (Phosphodiesterase 4): 76 nM | inhibition in vivo at 10 mg/kg (Rattus norvegicus [8]): 68%

CC(=O)N1CC[C@H](Oc2cccc(Nc3c(C(N)=O)cnc4c3c(C)nn4C)c2)C1
IC50 (Phosphodiesterase 4): > 300 nM

Cc1nn(C)c2ncc(C(N)=O)c(Nc3cccc(OC4CCCC4)c3)c12
IC50 (Phosphodiesterase 4): > 100 nM | inhibition in vivo at 10 mg/kg (Rattus norvegicus [8]): 39%

COc1ccc(Nc2c(C(N)=O)cnc3c2c(C)nn3C)cc1
IC50 (Phosphodiesterase 4): > 100 nM

Cc1nn(C)c2ncc(C(N)=O)c(Nc3cccc(OC4CCC4)c3)c12
IC50 (Phosphodiesterase 4): > 100 nM
